Measurements from the NIST ThermoML archive (doi:10.1007/s10765-011-0989-8).
Numbers after ± are expanded uncertainties.

Settings: 101 kPa, Liquid; for viscosity: Capillary tube (Ostwald / Ubbelohde) method; for mass density: Pycnometric method

CO [methanol]
Settings | mass density [kg/m3] | viscosity [mPa·s]
293.15 K | 791 ± 1 | 0.595 ± 0.025
298.15 K | 786.4 ± 1 | 0.552 ± 0.023
303.15 K | 781.8 ± 1 | 0.514 ± 0.021
308.15 K | 777.2 ± 1 | 0.478 ± 0.02
313.15 K | 771.8 ± 1 | 0.449 ± 0.019
323.15 K | 762.3 ± 1 | 0.394 ± 0.016
333.15 K | 752.4 ± 1 | 0.349 ± 0.015
